In patent US11401255B2, “Small molecule activators of Parkin enzyme function” (Mayo Foundation for Medical Education and Research, priority 2016, dated 2022):
Several values for one entry are separate records, joined by “and”; a condition that tells them apart may be missing. Identical values can stand only once. Like-named read-outs stand apart in the source and are kept apart here.

Experiments:
Parkin = Parkin (Homo sapiens (Human), UniProt O60260); test: Parkin substrates and pS65-Ub western blot in HeLa cells stably expressing untagged Parkin; type: cell-based; conditions: 5 μM, 2 h, then 3.5 μM CCCP
Sequence of Parkin (O60260 whole entry): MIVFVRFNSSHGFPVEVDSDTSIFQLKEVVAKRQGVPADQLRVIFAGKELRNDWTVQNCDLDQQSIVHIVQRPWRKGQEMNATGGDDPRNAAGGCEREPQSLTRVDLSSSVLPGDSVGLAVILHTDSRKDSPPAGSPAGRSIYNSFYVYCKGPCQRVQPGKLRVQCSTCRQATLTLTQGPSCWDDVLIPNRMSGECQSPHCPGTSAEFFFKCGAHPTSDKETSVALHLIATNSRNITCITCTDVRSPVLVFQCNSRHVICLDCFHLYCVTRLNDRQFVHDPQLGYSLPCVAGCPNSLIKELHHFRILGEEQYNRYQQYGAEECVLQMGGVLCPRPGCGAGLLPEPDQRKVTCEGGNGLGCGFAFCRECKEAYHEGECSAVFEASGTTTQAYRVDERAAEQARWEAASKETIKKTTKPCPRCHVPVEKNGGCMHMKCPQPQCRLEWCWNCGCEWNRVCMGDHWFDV
Method: HeLa cells stably expressing untagged Parkin were left untreated or pre-treated with 5 μM of Compounds 1, 2, 3, 4, and 31 for 2 h and treated without (−) or with (+) low dose CCCP (3.5 μM CCCP). As a positive control (PC), some cells were treated with 10 μM CCCP. Lysates were loaded onto 8-16% Tris-Glycine gels, blotted onto membranes and probed with antibodies against Parkin substrates.
HeLa cells stably expressing untagged Parkin were left untreated or pre-treated with 5 μM of Compounds 1, 2, 3, 4, and 31 for 2 h and treated without (−) or with (+) low dose CCCP (3.5 μM CCCP). The positive control (PC) was treated with 10 μM CCCP for 2 h. Lysates were loaded onto 8-16% Tris-Glycine gels, blotted onto membranes and probed with antibodies against pS65-Ub.
Cells were harvested in RIPA buffer or NP-40 lysis buffer containing protease and phosphatase inhibitors (Complete and PhosStop, Roche Applied Science) with the exception of Parkin Ub charging experiments where preheated (95° C.) SDS lysis buffer (50 mM Tris pH 7.6, 150 mM NaCl, 1% SDS) was used. Concentration of cell lysates was determined with bicinchoninic acid (Pierce Biotechnology). For Parkin Ub charging experiments, aliquots of lysates were treated with […] for 1 h at 37° C. pH was neutralized with equinormal HCl.
Protein was subjected to SDS-PAGE using 4-20% or 8-16% Tris-Glycine gels (Invitrogen) and transferred onto polyvinylidene fluoride (PVDF) (Millipore). Membranes were incubated with primary antibodies overnight at 4° C. followed by HRP-conjugated secondary antibodies (1:10,000; Jackson ImmunoResearch Laboratories). Primary antibodies used: beta III tubulin (rabbit, 1:1000, CST, #5568, CST), FLAG (mouse, 1:250,000, Sigma, F3165), GAPDH (mouse, 1:100,000-500,000, Meridian Life science, H86504M), GST (1:10,000, Sigma, G7781), MFN1 (mouse, 1:5,000, Abcam, ab57602), MFN2 (mouse, 1:5,000, Abcam, ab56889), Parkin (mouse, 1:2,000, Cell Signaling, #4211), pSer65-Ub (rabbit, 1:15,000, in-house (Fiesel et al., EMBO Reports (2015) 16:1114-30; Fiesel et al., (2015) Autophagy 11:2125-2126)), TOM70 (rabbit, 1:5,000, Proteintech, 14528-1-AP), UBE2L3 (rabbit, 1:10,000, ProteinTech, 14415-1-AP), VDAC1 (mouse, 1:5,000, Abcam, ab14734), vinculin (mouse, 1:100,000, Sigma, V9131).
As readout for its activation, a catalytic site mutant that can be used to trap Ub-charged Parkin was employed. […] To further validate effects on enhanced activation, we used HeLa cells expressing untagged native Parkin. PC treatment with 10 μM CCCP induced pSer65-Ub signals and the complete degradation of some substrates (e.g., Mitofusins) while the most abundant, VDAC1, was still ubiquitylated (FIG. 8). Similar effects were seen when cells had been pre-incubated with 5 μM of compound before a low dose CCCP, which had no effect on its own.

TA 98 = test: Ames Test, strain TA 98
Source text: (§1) The test used amino acid-dependent strains of Salmonella typhimurium and Escherichia coli to detect point mutations which involved substitution, addition or deletion of one or a few DNA base pairs. Point mutations were introduced in the histidine (Salmonella typhimurium) or the tryptophan (Escherichia coli) operon, making the tester strains incapable of producing these amino acids. The test detected mutations that revert the mutations present in the bacteria, restoring the functional capability to synthesize histidine or tryptophan. The revertant bacteria were detected by the ability to grow in the absence of the amino acid required by the parent test strain. A mutagenic potential of a tested compound was assessed by exposing these bacterial strains to different concentrations of the compounds and estimating number of revertant colonies grown in the absence (trace quantities) of the amino acid.
(§2) DMSO was used as the negative control.
(§3) For each experiment, tester strain cultures were grown overnight in Oxoid nutrient broth #2 at 37° C. with shaking at 235 rpm to a density of 1-2×10^9 colony forming units/mL (OD540˜2).
(§4) The tester strain (10 μL of night culture) was mixed with the test agent (10 µL of the DMSO stock) and GM liquid medium (30 μL). The obtained mixture was incubated at room temperature for 5 min in a sterile 1.5 mL tube. Then, to the tube was added 200 μL of molten top agar stored at 44° C. to prevent solidifying. After mixing with a pipette, the mixture was poured onto the surface of a GM agar plate (2.0 mL of GM agar per plate). After solidifying the top agar, the plate was inverted and incubated at 37° C. for 48 hours. Then, results were expressed as number of revertant colonies per plate.

TA 100 = test: Ames Test, strain TA 100
Source text: as §1, §2, §3, §4

TA 1535 = tested on: TA 1535
Source text: as §1, §2, §3, §4

TA 1537 = test: Ames Test, strain TA 1537
Source text: as §1, §2, §3, §4

CYP 2C9 = CYP 2C9 (Homo sapiens (Human), UniProt P11712); test: P450-Glo CYP450 inhibition, CYP 2C9; type: in vitro ADME; conditions: CYP 2C9, 10 μM; for inhibition at 10 µM: human, P450-Glo Assay System (Promega), CYP 2C9 membranes
Sequence of CYP 2C9 (P11712 whole entry): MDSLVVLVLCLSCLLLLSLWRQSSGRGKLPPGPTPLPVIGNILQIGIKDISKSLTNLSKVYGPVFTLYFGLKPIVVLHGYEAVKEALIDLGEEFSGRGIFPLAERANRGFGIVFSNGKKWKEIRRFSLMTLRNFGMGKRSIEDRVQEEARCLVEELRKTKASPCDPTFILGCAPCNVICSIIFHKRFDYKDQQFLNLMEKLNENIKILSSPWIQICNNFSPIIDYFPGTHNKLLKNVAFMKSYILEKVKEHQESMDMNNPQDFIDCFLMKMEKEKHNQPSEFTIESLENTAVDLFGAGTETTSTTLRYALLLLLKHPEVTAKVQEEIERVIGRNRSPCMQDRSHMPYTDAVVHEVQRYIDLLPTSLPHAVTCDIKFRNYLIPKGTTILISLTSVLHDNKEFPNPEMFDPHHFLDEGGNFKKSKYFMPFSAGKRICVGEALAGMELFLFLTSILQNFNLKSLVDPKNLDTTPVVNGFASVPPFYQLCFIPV
Method: CYP450 inhibition profiling provides valuable information regarding any possible drug-drug interactions for a test compound.
All experiments were performed using P450-Glo™ Assay Systems (Promega) in accordance with the manufacturer's protocols. The P450-Glo™ Assays provide a luminescent readout-based method for measuring cytochrome P450 activity. A conventional cytochrome P450 reaction was performed by incubating the cytochrome P450 and a luminogenic cytochrome P450 substrate. The substrates in the P450-Glo™ assays are derivatives of beetle luciferin. The derivatives themselves are not substrates for luciferase but are converted by cytochrome P450s to luciferin, which in turn reacts with luciferase to produce light. The amount of light produced was directly proportional to cytochrome P450 activity. All test points were performed in quadruplicates. Control membranes (without CYPs) represented the Negative control (baseline).
The following reference compounds were used to assess CYP inhibition: […]

[1] = TA 98, 200 μM, baseline = mean of negative control + SD
[2] = TA 1537, 50 μM (row printed 100; conc. column shifted)
[3] = TA 1537, 100 μM (row printed 200; conc. column shifted)
[4] = TA 1537, 200 μM (row printed 300; conc. column shifted)

SMILES | Parkin substrate levels (ubiquitination and degradation) (Parkin) | pS65-Ub signal (western blot) (Parkin) | Fold increase (over baseline) (TA 98; TA 98, 50 μM) | Mean ± SD (TA 98; TA 98, 50 μM) | Fold increase (over baseline) (TA 98; TA 98, 100 μM) | Mean ± SD (TA 98; TA 98, 100 μM) | Mean ± SD (TA 98; TA 98, 200 μM) | Fold increase (over baseline) (TA 98; [1]) | Fold increase (over baseline) (TA 100; TA 100, 50 μM) | Mean ± SD (TA 100; TA 100, 50 μM) | Fold increase (over baseline) (TA 100; TA 100, 100 μM) | Mean ± SD (TA 100; TA 100, 100 μM) | Fold increase (over baseline) (TA 100; TA 100, 200 μM) | Mean ± SD (TA 100; TA 100, 200 μM) | Fold increase (over baseline) (TA 1535; TA 1535, 50 μM) | Mean ± SD (TA 1535; TA 1535, 50 μM) | Fold increase (over baseline) (TA 1535; TA 1535, 100 μM) | Mean ± SD (TA 1535; TA 1535, 100 μM) | Fold increase (over baseline) (TA 1535; TA 1535, 200 μM) | Mean ± SD (TA 1535; TA 1535, 200 μM) | other results
CC(C)c1nccn1CC(=O)Nc1ccc(-c2ccccc2)cc1 [Compound 2] | reduced substrate levels | robust induction of pS65-Ub | 0.3 | 1 ± 1.41 revertant colonies per plate | 0.2 | 0.5 ± 0.7 revertant colonies per plate | 0.5 ± 0.7 revertant colonies per plate | 0.2 | 1.37 | 8.5 ± 6.36 revertant colonies per plate | 0.97 | 6 ± 2.83 revertant colonies per plate | 1.61 | 10 ± 0 revertant colonies per plate | 0 | 0 ± 0 revertant colonies per plate | 0.68 | 3 ± 0 revertant colonies per plate | 0.23 | 1 ± 0 revertant colonies per plate | Fold increase (over baseline) (TA 1537; [2]): 0.68; Mean ± SD (TA 1537; [2]): 1.5 ± 2.12 revertant colonies per plate; Fold increase (over baseline) (TA 1537; [3]): 0.45; Mean ± SD (TA 1537; [3]): 1 ± 0 revertant colonies per plate; Fold increase (over baseline) (TA 1537; [4]): 0.23; Inhibition, % (individual replicates) (CYP 2C9): 30.3% and 25.4% and 21.4%; inhibition at 10 µM (CYP 2C9; read-out: Inhibition, % (individual replicates)): 36.6%; inhibition at 10 µM (CYP 2C9; read-out: Inhibition, % Mean): 28.4%
Cc1nc2c(c(N3CCCN(Cc4ccccc4)CC3)n1)CCCC2 [Compound 31] | reduced substrate levels | robust induction of pS65-Ub | 0.2 | 0.5 ± 0.7 revertant colonies per plate | 0.3 | 1 ± 0 revertant colonies per plate | 1 ± 1.41 revertant colonies per plate | 0.3 | 1.04 | 6.5 ± 0.7 revertant colonies per plate | 0.97 | 6 ± 0 revertant colonies per plate | 0.97 | 6 ± 1.41 revertant colonies per plate | 0.57 | 2.5 ± 2.12 revertant colonies per plate | 0.23 | 1 ± 0 revertant colonies per plate | 0.57 | 2.5 ± 0.7 revertant colonies per plate | Fold increase (over baseline) (TA 1537; [2]): 0.45; Mean ± SD (TA 1537; [2]): 1 ± 1.41 revertant colonies per plate; Fold increase (over baseline) (TA 1537; [3]): 0; Mean ± SD (TA 1537; [3]): 0 ± 0 revertant colonies per plate; Fold increase (over baseline) (TA 1537; [4]): 0.23; Inhibition, % (individual replicates) (CYP 2C9): 50.4% and −18.3% and 11.9% and 13.7%; inhibition at 10 µM (CYP 2C9; read-out: Inhibition, % Mean): 14.5%
